Test results published in patent publication US20250177351A1, “ISOINDOLINE COMPOSITIONS AND METHODS FOR TREATING NEURODEGENERATIVE DISEASE” (Cognition Therapeutics, Inc., priority 2022, published 2025).

Tests used:
[1] = tested on: CSF proteins; test: Phase 1b/2a trial: CSF protein expression by LC/MSMS; format: in vivo, human
Method: COG0102 clinical trial: This trial (ClinicalTrials.gov NCT02907567) was a randomized, double-blind, placebo-controlled clinical trial in mild to moderate Alzheimer's patients (MMSE 18-26) (See FIG. 1 for clinical trial design). The trial was conducted at six sites in Australia. Patients were randomized into placebo (n=5) or CT1812-treated groups: 90 mg (n=4), 280 mg (n=5) or 560 mg (n=5) and treated once daily for 28 days. Clinical chemistry was done at Sydpath (Sydney, AU). Pharmacokinetics were done at CPR Pharma Services (Adelaide, AU). Cerebrospinal fluid samples were taken at screening and day 21-28 of treatment and aliquoted. Plasma samples were taken at screening or Day 1 (one sample) and day 14-28, then spun down to separate plasma and aliquoted. One set of CSF samples was analyzed for Alzheimer's disease biomarkers; protein measurements (Aβ42, Aβ40, total tau, tau phosphorylated at threonine 181 (phosphorylated tau), NFL and neurogranin) were performed using commercially available ELISA assays from Fujirebio according to the manufacturer's instructions (INNOTEST β-AMYLOID(1-42), INNOTEST β-AMYLOID(1-40), INNOTEST hTau Ag, INNOTEST PHOSPHO-TAU(181P), Uman Diagnostics NFL assay). Neurogranin was measured with a sandwich ELISA method using antibodies Ng2 and Ng22 developed at the University of Gotteborg (Kvartsberg et al. 2015). Identical aliquots of CSF, and plasma were analyzed for protein expression changes via LC/MSMS at Caprion (see below).
LC MSMS biomarker discovery: Matched screening and day 28 plasma and CSF samples were analyzed by LC/MSMS at Caprion Biosciences Inc. Plasma was depleted of high and medium abundance proteins using a commercial immunoaffinity column, IgY14-Supermix (Sigma). CSF was depleted of only 14 high abundance proteins using MARS-14 (Agilent). All samples were digested with trypsin and plasma samples were fractionated by strong cation exchange chromatography (3 fractions). Both CSF and plasma samples were analyzed using a NanoAcquity UPLC coupled to a Q Exactive MS. […] The 12 most intense peaks per survey scan with charge states 2-8 fragmented and scanned with a mass range from 200 to 2000 m/z at a resolution of 17,500. Raw spectrometer data files for each LC-MS run were aligned independently using Elucidator software (Rosetta Biosoftware). The MS/MS spectra were matched to corresponding peptide sequences found in the Uniprot Human protein database (January 2017) using Mascot software, allowing for up to 2 missed cleavages, a peptide tolerance of 20 ppm, and an MS/MS tolerance of 0.05 Da. Outlier detection was performed by determining the average log-intensity of all isotope groups (IG) over injection order for all samples. Samples with an average value greater than 2 standard deviations from the mean were flagged for investigation. Following data transformation and normalization, expression analysis of the identified isotope groups was performed and the statistical significance of each comparison was assessed with a parametric, linear mixed model (LMM) and a non-parametric Wilcoxon ranked test (ranked p-values). Expression analysis was also performed at the peptide and protein levels, which used the same methodology as above, but applied to peptide/protein intensities, derived by rolling-up the corresponding isotope group intensities. Isotope groups not detected in at least half of the samples in either of the two groups being compared were not used for the roll-up.
Heat map analysis: The difference in protein abundance between day 28 and baseline for each sample was normalized for graphical comparison by converting to z-score. First, the mean and standard deviation (SD) of day 28—baseline values were calculated across all paired samples for each protein. Then, for each patient's paired sample fold change, the difference from the mean was determined and divided by the SD to derive the z-score. […]

[2] = Phase 1 MAD study: cognitive testing in healthy elderly cohort; format: in vivo, human; settings: 560 mg for 14 days (N = 7)
Method: The Alzheimer's Disease Assessment Scale-Cognition Subscale (ADAS-Cog 13) and a cognitive battery (including the category fluency test, controlled word association test, WMS-R digit span, digit symbol substitution test, and Rey Auditory Verbal Learning Test) were administered to subjects in the elderly cohort at baseline and on Day 14.

In the case of `CC(C)(C)Oc1cc(CCC(C)(C)N2Cc3ccc(S(C)(=O)=O)cc3C2)ccc1O` [CT1812], the “Synaptotagmin-1 expression in CSF, decrease in CT1812-treated vs. placebo” value ([1]; AD patients, 28 days) is reported as 63%, the “number of CSF proteins changed differentially vs placebo” value ([1]; AD patients, 28 days, p<0.05) is reported as 30 and the “FC (Treated) AFM” value ([1]; CSF, 28 days vs screening) is reported as 0.94. The “FC (Treated) ANGPTL2” value ([1]; CSF, 28 days vs screening) was 0.80, the “FC (Treated) CNTN1” value ([1]; CSF, 28 days vs screening) was 0.97 and the “FC (Treated) EFNB1” value ([1]; CSF, 28 days vs screening) was 0.97. The “FC (Treated) EPHA4” value ([1]; CSF, 28 days vs screening) was 0.94, the “FC (Treated) MBL2” value ([1]; CSF, 28 days vs screening) was 0.75 and the “FC (Treated) NPPC” value ([1]; CSF, 28 days vs screening) was 0.90. The “FC (Treated) P4HB” value ([1]; CSF, 28 days vs screening) was 1.10, the “FC (Treated) RBP4” value ([1]; CSF, 28 days vs screening) was 0.82 and the “FC (Treated) ROBO1” value ([1]; CSF, 28 days vs screening) was 0.96. For the same compound, the “FC (Treated) SEMA3F” value ([1]; CSF, 28 days vs screening) was 1.40, the “FC (Treated) SERPINA4” value ([1]; CSF, 28 days vs screening) was 0.88 and the “FC (Treated) SMPDL3B” value ([1]; CSF, 28 days vs screening) was 0.97. For the same compound, the “FC (Treated) SYT1” value ([1]; CSF, 28 days vs screening) was 0.78, the “FC (Treated) TPII” value ([1]; CSF, 28 days vs screening) was 0.90 and the “FC (Treated) YWHAB” value ([1]; CSF, 28 days vs screening) was 0.90. The “FC (Treated vs. Placebo) AFM” value ([1]; CSF, 28 days, p-value 0.002, rank p-value 0.003) was 0.84, the “FC (Treated vs. Placebo) SYT1” value ([1]; CSF, 28 days, p-value 0.011, rank p-value 0.011) was 0.63 and the “FC (Treated vs. Placebo) RBP4” value ([1]; CSF, 28 days, p-value 0.018, rank p-value 0.011) was 0.81. For the same compound, the “FC (Treated vs. Placebo) MBL2” value ([1]; CSF, 28 days, p-value 0.020, rank p-value 0.006, FC>10 may be artifact) was over 10, the “FC (Treated vs. Placebo) TNC” value ([1]; CSF, 28 days, p-value 0.029, rank p-value 0.011) was 0.91 and the “FC (Treated vs. Placebo) EFNB1” value ([1]; CSF, 28 days, p-value 0.029, rank p-value 0.034) was 0.93. The “FC (Treated vs. Placebo) EPHA4” value ([1]; CSF, 28 days, p-value 0.035, rank p-value 0.076) was 0.93, the “FC (Treated vs. Placebo) MDGA2” value ([1]; CSF, 28 days, p-value 0.036, rank p-value 0.106) was 0.71 and the “FC (Treated vs. Placebo) YWHAB” value ([1]; CSF, 28 days, p-value 0.038, rank p-value 0.148) was 0.81. The “FC (Treated vs. Placebo) ROBO1” value ([1]; CSF, 28 days, p-value 0.042, rank p-value 0.106) was 0.82, the “FC (Treated vs. Placebo) TPII” value ([1]; CSF, 28 days, p-value 0.044, rank p-value 0.076) was 0.87 and the “FC (Treated vs. Placebo) CD14” value ([1]; CSF, 28 days, p-value 0.046, rank p-value 0.034) was 1.20. For the same compound, the “FC (Treated vs. Placebo) SERPINA4” value ([1]; CSF, 28 days, p-value 0.047, rank p-value 0.020) was 0.79, the “FC (Treated vs. Placebo) CNTN1” value ([1]; CSF, 28 days, p-value 0.048, rank p-value 0.076) was 0.81 and the “FC (Treated vs. Placebo) ANGPTL2” value ([1]; CSF, 28 days, p-value 0.050, rank p-value 0.148) was 0.69. The “FC (Treated vs. Placebo) NPPC” value ([1]; CSF, 28 days, p-value 0.060, rank p-value 0.020) was 0.91, the “COWAT (Trial 2), Mean (SD)” value ([2]; Day 14, Day 0: 9.6 (4.2)) was 10.6 (5.1) and the “COWAT (Trial 1), Mean (SD)” value ([2]; Day 14, Day 0: 11.3 (5.7)) was 12.6 (4.5). For the same compound, the “COWAT (Trial 3), Mean (SD)” value ([2]; Day 14, Day 0: 14.6 (5.7)) was 15.1 (3.7), the “RAVLT, Mean (SD)” value ([2]; Day 14, Day 0: 17.3 (3.9)) was 18.7 (3.1) and the “WMS-R (Digit Span), Mean (SD)” value ([2]; Day 14, Day 0: 17.9 (3.3)) was 17.9 (3.3). For the same compound, the “CFT, Mean (SD)” value ([2]; Day 14, Day 0: 18.4 (5.5)) was 19.7 (2.4) and the “DSST, Mean (SD)” value ([2]; Day 14, Day 0: 78.3 (11.0)) was 80 (9.6).
